Experimental data published in US9138423B2, “Use of inhibitors of porphobilinogen deaminase in the treatment of congenital erythropoietic porphyria” (Asociación Centro de Investigación Cooperativa en …, priority 2010, dated 2015).

Tests used:
[1] = target: porphobilinogen deaminase (PBGD) (Homo sapiens (Human), UniProt P08397); experiment: Enzymatic assay of porphobilinogen deaminase catalytic activity (Lineweaver-Burk, inhibition constants); assay type: biochemical; details: for Ki: global data fitting of all values in presence of inhibitor, 37° C., pH 8.0, read-out: Ki (inhibition constant of the catalytic activity of the PBGD)
Chain of porphobilinogen deaminase (PBGD) (P08397 whole entry): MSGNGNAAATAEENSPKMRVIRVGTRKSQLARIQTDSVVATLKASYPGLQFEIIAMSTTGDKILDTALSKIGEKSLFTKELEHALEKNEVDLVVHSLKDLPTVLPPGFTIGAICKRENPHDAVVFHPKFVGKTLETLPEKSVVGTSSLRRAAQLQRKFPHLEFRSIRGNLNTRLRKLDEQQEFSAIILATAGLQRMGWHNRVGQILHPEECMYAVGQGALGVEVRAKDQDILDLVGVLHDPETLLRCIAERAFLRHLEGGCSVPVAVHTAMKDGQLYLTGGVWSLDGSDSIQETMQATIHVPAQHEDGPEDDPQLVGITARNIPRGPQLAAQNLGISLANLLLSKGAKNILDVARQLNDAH
Experimental: Obtaining and purifying the enzyme: The enzyme is obtained and purified by following the method published by Millet O et al. (2009) Biochemistry 48: 454-461.
Enzymatic assay: The assay is based on the method described by Jordan (Shoolingin-Jordan P M et al. (1997). Methods in enzymology 281: 327-336) with some modifications. 10 μL of porphobilinogen deaminase (PBGD) at a concentration of 150 μM in 48 μL of buffer (20 mM Tris-HCl pH 8.0, NaCl 150 mM) is preheated at 37° C. for two minutes. If the assay is performed in the presence of an inhibitor, the latter is added in dissolved form into the buffer. 25 μL of the porphobilinogen (PBG) substrate are then added, diluted to different concentrations (0.15, 0.3, 0.45, 0.6, 0.9, 1.2, 1.5, 1.8, 2.1, 2.4, 2.7, 3, 3.3, 3.9 mM) in the aforementioned buffer and are incubated at 37° C. for five minutes. A control assay containing a buffer without substrate (PBG) in the same proportions is performed at the same time. The enzymatic reaction is stopped by means of freezing the samples in liquid nitrogen. Then the mixture is incubated again with 6 μL of 25 mM uroporphyrinogen 3 synthase (U3S) at 37° C. for 30 minutes to transform the pre-uroporphyrinogen into uroporphyrinogen III. The reaction is again stopped by means of freezing in liquid nitrogen. Then the formed […] uroporphyrinogens are oxidized to uroporphyrins by means of adding 25 μL of I2/KI solution and incubation for 10 minutes in ice and darkness. The iodine excess is then bleached by adding 25 μL of saturated sodium metabisulfite solution. […] Finally, different dilutions of the supernatant in 0.1 M HCl are prepared to measure the change of absorbance at 405 nm with respect to the control sample.
Calculation of inhibition constants: Inhibition constants have been calculated from the global data fitting of all values in presence of inhibitor according to the methodologies disclosed in the prior art (Structure and mechanism in protein Science, Alan Fersht, 1999, Ed. Freeman and Co. (New York), Pag. 105-115).

[2] = target: porphobilinogen deaminase of Arabidopsis thaliana (Arabidopsis thaliana (Mouse-ear cress), UniProt Q43316); details: Arabidopsis thaliana enzyme; non-specific chemical modification; cited from earlier work
Chain of porphobilinogen deaminase of Arabidopsis thaliana (Q43316 63-382): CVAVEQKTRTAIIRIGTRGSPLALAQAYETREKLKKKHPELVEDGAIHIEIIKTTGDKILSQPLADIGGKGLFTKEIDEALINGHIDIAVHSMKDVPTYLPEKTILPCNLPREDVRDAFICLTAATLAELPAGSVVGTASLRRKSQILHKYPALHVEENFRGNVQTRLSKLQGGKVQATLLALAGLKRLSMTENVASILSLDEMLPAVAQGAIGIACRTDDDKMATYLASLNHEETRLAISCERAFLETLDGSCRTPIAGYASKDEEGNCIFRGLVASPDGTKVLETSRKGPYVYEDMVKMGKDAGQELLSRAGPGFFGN

[3] = target: Escherichia coli porphobilinogen deaminase (Escherichia coli (strain K12), UniProt P06983); details: Escherichia coli enzyme; cited from earlier work
Chain of Escherichia coli porphobilinogen deaminase (P06983 whole entry): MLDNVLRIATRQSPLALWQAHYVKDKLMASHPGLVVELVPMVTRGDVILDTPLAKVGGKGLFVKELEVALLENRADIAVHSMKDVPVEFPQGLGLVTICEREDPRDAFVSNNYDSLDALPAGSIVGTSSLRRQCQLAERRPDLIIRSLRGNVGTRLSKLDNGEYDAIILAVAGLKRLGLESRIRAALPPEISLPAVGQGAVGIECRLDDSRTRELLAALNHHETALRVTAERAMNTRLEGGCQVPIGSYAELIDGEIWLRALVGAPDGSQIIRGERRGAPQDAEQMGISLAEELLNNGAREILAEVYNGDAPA

Compound | Ki [1] | effect on catalytic activity of porphobilinogen deaminase [2] | other results
Cc1c[nH]c(C)c1 [2,4-CH3-PYR, 2,4-dimethyl-1H-pyrrole] | 6 µM | – | –
Cc1ccc(C)[nH]1 [2,5-CH3-PYR, 2,5-dimethyl-1H-pyrrole] | 3 µM | – | –
OCCS [2-mercaptoethanol] | – | significantly alter the catalytic activity | –
N[C@H](Cc1c[nH]c2ccccc12)C(=O)O [DTRP, 2R-amino-3-(1H-indol-3-yl) propanoic acid] | – | – | type of inhibition of the catalytic activity of PBGD (Lineweaver-Burk plot) ([1]; increasing amounts of inhibitor, change in slope with same intercept): competitive inhibition
CCN1C(=O)C=CC1=O [N-ethylmaleimide] | – | low inhibition | effect on catalytic activity of porphobilinogen deaminase [3]: strongly deactivates
